Source: US8633206B2, “Pyrrolo[2,3-D]pyrimidine compounds” (Pfizer Inc., priority 2009, dated 2014)

Legend:
Assay type in all cases: biochemical
JAK2 = JAK2 (Homo sapiens (Human), UniProt O60674); experiment: JAK enzymatic assay (peptide mobility shift), JAK2; conditions: recombinant JAK2 2 nM, JAKtide peptide, 150 minutes
JAK3 = JAK3 (Homo sapiens (Human), UniProt P52333); experiment: JAK enzymatic assay (peptide mobility shift), JAK3; conditions: recombinant JAK3 1 nM, JAKtide peptide, 90 minutes
JAK3, sequence (P52333 781-1124): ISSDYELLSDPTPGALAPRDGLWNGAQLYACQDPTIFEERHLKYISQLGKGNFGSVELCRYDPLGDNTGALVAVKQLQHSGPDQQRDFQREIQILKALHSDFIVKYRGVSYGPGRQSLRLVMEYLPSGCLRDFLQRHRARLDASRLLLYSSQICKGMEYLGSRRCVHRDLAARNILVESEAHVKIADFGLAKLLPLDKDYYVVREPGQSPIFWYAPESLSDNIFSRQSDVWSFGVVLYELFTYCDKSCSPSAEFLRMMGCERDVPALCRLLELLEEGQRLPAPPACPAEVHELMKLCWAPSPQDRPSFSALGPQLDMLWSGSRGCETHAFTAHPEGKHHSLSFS

JAK1 = JAK1 (Homo sapiens (Human), UniProt P23458); experiment: JAK enzymatic assay (peptide mobility shift), JAK1; conditions: recombinant JAK1 20 nM, IRS-1 peptide, 240 minutes
JAK1, sequence (P23458 whole entry): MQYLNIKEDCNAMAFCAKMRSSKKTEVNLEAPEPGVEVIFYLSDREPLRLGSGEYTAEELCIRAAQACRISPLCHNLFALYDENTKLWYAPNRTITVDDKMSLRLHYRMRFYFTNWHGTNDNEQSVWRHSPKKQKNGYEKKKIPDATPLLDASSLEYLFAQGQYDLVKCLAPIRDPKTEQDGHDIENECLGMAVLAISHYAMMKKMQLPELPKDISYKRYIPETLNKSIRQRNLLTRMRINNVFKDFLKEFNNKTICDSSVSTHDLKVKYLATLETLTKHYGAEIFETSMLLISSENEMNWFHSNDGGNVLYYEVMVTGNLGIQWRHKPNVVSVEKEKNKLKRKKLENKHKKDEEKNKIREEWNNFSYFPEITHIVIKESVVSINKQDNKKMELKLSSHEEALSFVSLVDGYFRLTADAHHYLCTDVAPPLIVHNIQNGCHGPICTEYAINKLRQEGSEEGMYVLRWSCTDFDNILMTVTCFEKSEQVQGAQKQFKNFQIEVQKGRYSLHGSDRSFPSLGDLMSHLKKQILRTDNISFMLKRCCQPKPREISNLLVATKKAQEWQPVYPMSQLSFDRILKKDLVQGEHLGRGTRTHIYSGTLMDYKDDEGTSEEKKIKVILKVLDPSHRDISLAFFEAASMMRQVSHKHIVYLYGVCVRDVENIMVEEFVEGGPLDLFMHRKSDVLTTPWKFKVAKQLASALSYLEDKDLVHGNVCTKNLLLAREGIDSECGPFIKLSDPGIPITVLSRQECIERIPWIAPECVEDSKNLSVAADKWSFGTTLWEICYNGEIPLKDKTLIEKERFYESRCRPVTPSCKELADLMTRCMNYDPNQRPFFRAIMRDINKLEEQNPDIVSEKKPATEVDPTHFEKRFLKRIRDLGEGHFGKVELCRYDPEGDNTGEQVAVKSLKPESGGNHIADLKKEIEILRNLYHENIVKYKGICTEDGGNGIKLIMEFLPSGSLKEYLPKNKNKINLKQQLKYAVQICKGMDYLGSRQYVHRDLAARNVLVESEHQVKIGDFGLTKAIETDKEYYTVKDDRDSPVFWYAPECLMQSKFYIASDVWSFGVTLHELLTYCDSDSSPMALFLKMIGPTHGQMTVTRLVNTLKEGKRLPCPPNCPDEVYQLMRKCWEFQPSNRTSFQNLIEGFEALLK

JAK2, sequence (O60674 808-1132): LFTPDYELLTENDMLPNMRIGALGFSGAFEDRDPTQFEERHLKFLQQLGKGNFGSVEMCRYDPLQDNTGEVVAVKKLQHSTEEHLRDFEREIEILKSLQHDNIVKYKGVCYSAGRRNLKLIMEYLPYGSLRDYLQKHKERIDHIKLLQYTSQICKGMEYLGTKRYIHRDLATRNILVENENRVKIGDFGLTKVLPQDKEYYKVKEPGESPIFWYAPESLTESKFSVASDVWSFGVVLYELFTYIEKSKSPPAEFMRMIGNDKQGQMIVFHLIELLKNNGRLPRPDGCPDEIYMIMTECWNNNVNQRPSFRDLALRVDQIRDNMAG

Row | IC50 (JAK2) | IC50 (JAK3) | IC50 (JAK1) | Compound
1 | 72.2 nM | 851 nM | 10.8 nM | C[C@H]1CCCN(S(=O)(=O)C[C@H]2CC[C@H](N(C)c3ncnc4[nH]ccc34)CC2)C1 [Example 61, N-methyl-N-(trans-4-{[(3-methylpiperidin-1-yl)sulfonyl]methyl}cyclo-hexyl)-7H-pyrrolo[2,3-d]-pyrimidin-4-amine]
2 | 20.1 nM | 233 nM | 2.4 nM | CN(c1ncnc2[nH]ccc12)[C@H]1CC[C@H](CS(=O)(=O)N2CCC[C@H](CO)C2)CC1 [Example 62, {1-[({trans-4-[methyl(7H-pyrrolo[2,3-d]pyrimidin-4-yl)amino]cyclohexyl}-methyl)sulfonyl]piperidin-3-yl}methanol]
3 | 50.7 nM | 554 nM | 8.88 nM | CN(c1ncnc2[nH]ccc12)[C@H]1CC[C@H](CS(=O)(=O)N2CCC[C@@](C)(CO)C2)CC1 [Example 63, {3-methyl-1-[({trans-4-[methyl(7H-pyrrolo[2,3-d]-pyrimidin-4-yl)amino]-cyclohexyl}methyl)sulfonyl]piperidin-3-yl}methanol]
4 | 32.1 nM | 263 nM | 2.71 nM | CN(c1ncnc2[nH]ccc12)[C@H]1CC[C@H](CS(=O)(=O)N2CCC[C@H](C#N)C2)CC1 [Example 64, 1-[({trans-4-[methyl(7H-pyrrolo[2,3-d]pyrimidin-4-yl)amino]cyclohexyl}-methyl)sulfonyl]piperidine-3-carbonitrile]
5 | 40.9 nM | 431 nM | 7.6 nM | CN(c1ncnc2[nH]ccc12)[C@H]1CC[C@H](CS(=O)(=O)N2CCC[C@@](C)(O)C2)CC1 [Example 65, 3-methyl-1-[({trans-4-[methyl(7H-pyrrolo[2,3-d]-pyrimidin-4-yl)amino]-cyclohexyl}methyl)sulfonyl] piperidin-3-ol]
6 | 22 nM | 128 nM | 3.1 nM | CN(c1ncnc2[nH]ccc12)[C@H]1CC[C@H](CS(=O)(=O)N2CCC[C@H](CS(N)(=O)=O)C2)CC1 [Example 66, 1-{1-[({trans-4-[methyl(7H-pyrrolo[2,3-d]pyrimidin-4-yl)amino]cyclohexyl}-methyl)sulfonyl]piperidin-3-yl}-methanesulfonamide]
7 | 92.2 nM | 573 nM | 20.6 nM | CN(c1ncnc2[nH]ccc12)[C@H]1CC[C@H](CS(=O)(=O)N2CCC[C@H](CS(C)(=O)=O)C2)CC1 [Example 67, N-methyl-N-{trans-4-[({3-[(methylsulfonyl)methyl]-piperidin-1-yl}sulfonyl)-methyl]cyclohexyl}-7H-pyrrolo[2,3-d]pyrimidin-4-amine]
8 | 41.8 nM | 468 nM | 11.9 nM | CO[C@@H]1CCN(S(=O)(=O)C[C@H]2CC[C@H](N(C)c3ncnc4[nH]ccc34)CC2)C1 [Example 68, N-[trans-4-({[(3R)-3-methoxypyrrolidin-1-yl]sulfonyl}methyl)cyclo-hexyl]-N-methyl-7H-pyrrolo[2,3-d]pyrimidin-4-amine]
9 | 56.2 nM | 370 nM | 9.55 nM | COC[C@H]1CCCN1S(=O)(=O)C[C@H]1CC[C@H](N(C)c2ncnc3[nH]ccc23)CC1 [Example 69, N-[trans-4-({[(2R)-2-(methoxymethyl)pyrrolidin-1-yl]sulfonyl}methyl)-cyclohexyl]-N-methyl-7H-pyrrolo[2,3-d]pyrimidin-4-amine]
10 | 36.4 nM | 319 nM | 20.8 nM | CN(c1ncnc2[nH]ccc12)[C@H]1CC[C@H](CS(=O)(=O)N2CC[C@H](F)C2)CC1 [Example 70, N-[trans-4-({[(3S)-3-fluoropyrrolidin-1-yl]sulfonyl}methyl)cyclo-hexyl]-N-methyl-7H-pyrrolo[2,3-d]pyrimidin-4-amine]
11 | 8.54 nM | 80.8 nM | 2.52 nM | CN(c1ncnc2[nH]ccc12)[C@H]1CC[C@H](CS(=O)(=O)N2C[C@@H](O)[C@@H](O)C2)CC1 [Example 71, (3R,4S)-1-[({trans-4-[methyl(7H-pyrrolo[2,3-d]-pyrimidin-4-yl)amino]-cyclohexyl}methyl)sulfonyl] pyrrolidine-3,4-diol]
12 | 39.6 nM | 173 nM | 5.92 nM | CN(c1ncnc2[nH]ccc12)[C@H]1CC[C@H](CS(=O)(=O)N2C[C@@H](O)[C@H](O)C2)CC1 [Example 72, (3R,4R)-1-[({trans-4-[methyl(7H-pyrrolo[2,3-d]-pyrimidin-4-yl)amino]-cyclohexyl}methyl)sulfonyl] pyrrolidine-3,4-diol]
13 | 22.5 nM | 138 nM | 1.69 nM | COC[C@@H]1CCN(S(=O)(=O)C[C@H]2CC[C@H](N(C)c3ncnc4[nH]ccc34)CC2)C1 [Example 73, N-[trans-4-({[3-(methoxy-methyl)pyrrolidin-1-yl]-sulfonyl}methyl)-cyclohexyl]-N-methyl-7H-pyrrolo[2,3-d]pyrimidin-4-amine]
14 | 55.2 nM | 495 nM | 17.3 nM | CC[C@@]1(CO)CCN(S(=O)(=O)C[C@H]2CC[C@H](N(C)c3ncnc4[nH]ccc34)CC2)C1 [Example 74, {3-ethyl-1-[({trans-4-[methyl(7H-pyrrolo[2,3-d]-pyrimidin-4-yl)amino]-cyclohexyl}methyl)sulfonyl]-pyrrolidin-3-yl}methanol]
15 | 62.2 nM | 399 nM | 19.1 nM | CN(c1ncnc2[nH]ccc12)[C@H]1CC[C@H](CS(=O)(=O)N2CC[C@H](NC(=O)C(F)(F)F)C2)CC1 [Example 75, 2,2,2-trifluoro-N-{(3S)-1-[({trans-4-[methyl(7H-pyrrolo[2,3-d]pyrimidin-4-yl)amino]cyclohexyl}methyl)-sulfonyl]pyrrolidin-3-yl}acetamide]
16 | 27.2 nM | 125 nM | 2.98 nM | CN(c1ncnc2[nH]ccc12)[C@H]1CC[C@H](CS(=O)(=O)N2CC[C@H](S(C)(=O)=O)C2)CC1 [Example 76, N-methyl-N-[trans-4-({[3-(methylsulfonyl)pyrrolidin-1-yl]sulfonyl}methyl)-cyclohexyl]-7H-pyrrolo[2,3-d]pyrimidin-4-amine]
17 | 50.2 nM | 644 nM | 10.1 nM | CN(C)C(=O)CO[C@@H]1CCN(S(=O)(=O)C[C@H]2CC[C@H](N(C)c3ncnc4[nH]ccc34)CC2)C1 [Example 77, N,N-dimethyl-2-({(3R)-1-[({trans-4-[methyl(7H-pyrrolo[2,3-d]pyrimidin-4-yl)amino]cyclohexyl}-methyl)sulfonyl]pyrrolidin-3-yl}oxy)acetamide]
18 | 34.3 nM | 275 nM | 13.8 nM | CN(c1ncnc2[nH]ccc12)[C@H]1CC[C@H](CS(=O)(=O)N2C[C@@H](F)[C@H](F)C2)CC1 [Example 78, N-[trans-4-({[(3R,4R)-3,4-difluoropyrrolidin-1-yl]sulfonyl}methyl)cyclo-hexyl]-N-methyl-7H-pyrrolo[2,3-d]pyrimidin-4-amine]
19 | 55.6 nM | 580 nM | 14.4 nM | CN(c1ncnc2[nH]ccc12)[C@H]1CC[C@H](CS(=O)(=O)N2C[C@](C)(CO)[C@](C)(CO)C2)CC1 [Example 79, {(3R,4S)-3,4-dimethyl-1-[({trans-4-[methyl(7H-pyrrolo[2,3-d]pyrimidin-4-yl)amino]cyclohexyl}methyl)-sulfonyl]pyrrolidine-3,4-diyl}dimethanol]
